Test results: patent US10827753B2, “Compositions and methods for controlling nematodes” (Monsanto Technology LLC, priority 2007, dated 2020)
Read-outs that look alike come from different tables or passages of the source. Marks after values point to notes of the source that are not given here.

Legend:
Meloidogyne incognita [1] = experiment: M. incognita miniaturized greenhouse assay on cucumber seedlings (root galling); assay type: in vivo; design: key to 1 ppm gall ratings / 1 ppm gall rating: mean of 3 gall ratings: 0=0-5%, 1=6-20%, 2=21-50%, 3=51-100% root galled; details: for 8 ppm gall ratings: average of triplicate gall rating, scale 0-3 (% root mass galled)
Procedure: The test compound is dissolved in an acetone solution and added to water. A sprouted cucumber seedling is placed into a vial with dry sand and the water-chemical solution is added immediately. Twenty four hours later Meloidogyne incognita eggs are added to the vials and 10 to 12 days later the roots are evaluated for nematode galling.
Cucumber seeds are sprouted for 3 days in moist paper towels. Acceptable sprouts should be 3 to 4 cm long with several lateral roots just emerging. Stock solutions of chemistry are prepared in a mixture of acetone and Triton X100 (412 mg in 500 mL) to a final concentration of 5 mg/mL. The chemical stock solution is then added to 10 mL deionized water plus 0.015% Triton X100 and mixed thoroughly. This is enough to test each condition in triplicate. Ten mL dry sand is added to each vial. At this time the solubility of the chemistry is visually determined and recorded as either ppt (large precipitates) or cloudy (fine precipitates). Seedlings are planted by tilting the vial and laying the seedling in the correct orientation so that the cotyledons are just above the sand and then tilting back to cover the radicles with sand. 3.3 ml water/chemical mix is added to each vial and the vials placed in racks under fluorescent light banks. The vials are inoculated two days after planting by adding 500 vermiform M. incognita eggs to each vial in 50 uL of deionized or spring water. The vials are then kept under the fluorescent lamps at ambient room temperature and watered as needed with 1 mL deionized water, usually twice during duration of test. Harvest of the cucumber plants is done 10 to 12 days after inoculation by washing sand off the roots. A root gall rating and visual phytotoxicity rating is assigned using the following scales: Gall rating scale (Gall: % root mass galled): 0=0-5%; 1=6-20%; 2=21-50%; and 3=51-100%. The average of the triplicate gall rating is then calculated: green=0.00-0.33 (no galls); yellow=0.67-1.33 (mild galling); orange=1.67-2.33 (moderate galling); red=2.67-3.00 (severe galling). Visual phytotoxicity scale is also assigned (Vis. tox; visual reduction in root mass compared to the control): rs1=mild stunting; rs2=moderate stunting; rs3=severe stunting.

root knot nematode (RKN) = experiment: RKN greenhouse soil assay on cucumber plants; assay type: in vivo, Meloidogyne incognita
Text: Cucumber seeds are planted in a sandy soil mixture in two inch square plastic pots. When the cotyledons are fully opened and just as the first leaf begins to emerge, usually 7 days after planting, chemistry for the 7 day treatment is applied. One week later the chemistry for the 0 day treatment is applied. Separate plants are used for each application. The plants are generally in the 1-2 leaf stage now. At least four hours after the chemistry application the pots are inoculated with root knot nematode (RKN) eggs. Plants are rated for galling 14 days after the egg inoculation.
One milligram of chemistry per four pots is equal to one kilogram per hectare of chemical. A standard test uses four replications. For rates above 2 kg/ha, the desired amount of chemical is weighed into a 30 ml vial (example: 8 kg/ha rate=8 mg chemical in 30 ml vial). The chemical is dissolved in 2 ml of appropriate solvent, generally acetone. For rates below 2 kg/ha, 2 milligrams of chemistry is weighed into the vial and dissolved in 2 ml of the solvent. The appropriate amount of chemical concentrate is then pipetted into a separate 30 ml vial and solvent is added to bring the volume to 2 ml (example 0.5 kg/ha=0.5 ml of concentrate+1.5 ml solvent). Each dissolved concentrate is then brought to a total of 20 milliliters using 0.05% Triton X 100 surfactant solution.
Pots to be treated are moist but not saturated. To each of four pots, five milliliters of the appropriate chemical solution is pipetted to the media surface making sure to avoid contact with the base of the plant. Immediately following chemical application, using a mist nozzle, the pot surface is wetted sufficiently to saturate the pot watering in the chemistry. The chemical application is done in the morning.
Nematode eggs, either SCN or RKN, are added to distilled water to create a concentration of 1000 vermiform eggs […]. At least four hours after chemical treatment the eggs are applied to the treated pots plus non-treated check plants. A small hole about 1 cm deep is punched into the pot surface. One milliliter of the nematode egg slurry is pipetted into the hole. Immediately afterwards the hole is gently covered. Watering of the test plants is then restricted to only water as needed to prevent wilt for a period of 24 hours. After the 24 hour restricted watering, normal sub-irrigation watering is done for the duration of the test.

root knot nematode = experiment: Pre-plant incorporated (PPI) greenhouse test of root knot nematode on cucumber plants; assay type: in vivo, Meloidogyne incognita; details: Meloidogyne incognita, read-out: percent control (galling reduction) relative to the control blank treatment; for pest or weed control at 4000 g/ha: 4 kg/ha rate; for pest or weed control at 8000 g/ha: 8 ka/ha rate; for pest or weed control at 2000 g/ha: 2 kg/ha rate
Text: The PPI test examines the effect of pre-incorporation of compounds in soil and longer aging to simulate in furrow methods of nematicide application in the field. The PPI test exposes compounds to a higher volume of soil and drying which can result in more severe soil binding. Compounds are also aged for longer periods which can lead to more extensive biotic and abiotic degradation further limiting activity.
The chemically treated soil (sandy soil mix) for all treatment days (e.g., 7 days, 14 days, 21 days) treatments is potted into their appropriate pots. On the same day the 7 day treatment pots are seeded. One week later eggs are applied and 14 days after egg application the test is harvested. The 14 day treatments are planted 7 days after the first planting. The 14 day planting and 7 day inoculation happen on the same day. One week later the 14 day treatments are inoculated with eggs. These are harvested 14 days after the inoculation. The 21 day treatments are planted 14 days after the first planting. The 14 day inoculation and 21 day planting are done on the same day. One week later the 21 day plants are inoculated with eggs. The 7 day treatment is harvested the same day as the 21 day inoculation. Fourteen days after inoculation the 21 day plants are harvested.
For each compound a stock is prepared using 4 mg material in 4 ml of acetone. The soil is mixed by placing 80 ml of field soil and 320 ml of sand in a plastic bag and mixing well. The formulation for treatment is done by adding 2.13 ml (8 kg/ha rate), 1.06 ml (4 kg/ha rate) or 0.53 ml (2 kg/ha rate) to a vial and raising it with 10 ml in 0.05%×100. Soil is then treated by adding the entire 10 ml to the 400 ml of mix in the bag. The treated soil is immediately mixed well in the sealed bag to distribute the compound evenly. Approximately 95 ml is used to fill each 2-inch square pot up to the top with some soil compression and flattening. For each compound and for the control treatments 4 pots are filled. All pots are watered until moist but with no run-out through the bottom.
The PPI test simulates 8, 4 and 2 kg/ha rates incorporated 15 cm deep in the field and is equivalent to the 2, 1 and 0.5 kg/ha drench application rates in the standard 2-inch pot cucumber greenhouse assay.

Meloidogyne incognita [2] = experiment: Summer field evaluation of pre-plant incorporated compounds on squash; assay type: in vivo
Procedure: Test plots of 33 cm diameter holes were bored 41 cm deep into clay soil and filled with a mixture of 80% sand and 20% silt loam soil. Technical compound for each treatment was dissolved in 50 ml acetone containing 250 ul of Triton X-100 surfactant. This solution was added to 450 ml water and poured onto 95 liters of sand/soil mixture in a rotating drum mixer. While continuing to rotate the mixing drum 66 grams of chopped, galled, tomato roots was added and thoroughly distributed. The treated soil was sufficient to fill the top 15 cm of each of the 6 replicate plots, thus simulating a PPI treatment. The plots were then watered lightly and a mixture of M. incognita eggs and larvae were injected 5 cm deep at 5 points within the plot (100 k eggs/larvae in 10 ml per plot). Three-week old squash (cv. Liberator III) with 1 fully expanded true leaf was planted 4 days after soil treatment, one per plot.

[3] = Acetone 1 mg/kg, standard 10% acetone in 0.05% Triton X 100 formulation
[4] = Radex 1 mg/kg, emulsifiable concentrate, 6.25% active ingredient by weight
[5] = 168 h, seven day pre-plant incorporated
[6] = fourteen day pre-plant incorporated, test a
[7] = 0 day treatment, 0.25 kg/ha, test a

Row | Compound | 1 ppm gall ratings (Meloidogyne incognita [1]; Table 1B test a) | 1 ppm gall ratings (Meloidogyne incognita [1]; Table 1B test b) | 8 ppm gall ratings (Meloidogyne incognita [1]) | percent control (galling reduction) relative to the appropriate control blank treatment (root knot nematode (RKN); [3]) | percent control (galling reduction) relative to the appropriate control blank treatment (root knot nematode (RKN); [4]) | pest or weed control at 2000 g/ha (root knot nematode; [6]) | pest or weed control at 4000 g/ha (root knot nematode; [6]) | pest or weed control at 8000 g/ha (root knot nematode; [6]) | further results
1 | Brc1ccc(-c2noc(-c3cccs3)n2)cc1 [compound 1846] | 1.33 | 0.67 | 0 (0=0-5%) | 88% | 86% |  |  |  | 
2 | FC(F)(F)c1ccc(-c2noc(-c3cccs3)n2)cc1 [compound 5213] |  |  | 0.33 |  |  |  |  |  | pest or weed control at 4000 g/ha (root knot nematode; [5]): 85%; pest or weed control at 8000 g/ha (root knot nematode; [5]): 98%
3 | Brc1ccc(-c2noc(-c3ccco3)n2)cc1 [compound 5467] | 1.67 | 1.33 | 0 (0=0-5%) | 73% | 88% | 71% | 76% | 100% | 
4 | Fc1ccc(-c2noc(-c3cccs3)n2)cc1 [compound 5479] | 1 (1=6-20%) | 0.67 | 0 (0=0-5%) | 91% | 96% | 71% | 89% | 100% | 
5 | Clc1ccc(-c2noc(-c3ccco3)n2)cc1 [compound 5523] | 1 (1=6-20%) | 1.33 | 0 (0=0-5%) | 86% | 86% | 59% | 87% | 99% | 0-3 vigor 16 DAP (Meloidogyne incognita [2]; 4 kg (kg/ha) PPI, squash): 3.0; 0-3 vigor 21 DAP (Meloidogyne incognita [2]; 4 kg (kg/ha) PPI, squash): 3.0; feeder root (3 = ave) 31 DAP (Meloidogyne incognita [2]; 4 kg (kg/ha) PPI, squash): 3.0; gall % 31 DAP (Meloidogyne incognita [2]; 4 kg (kg/ha) PPI, squash): 26%; root wgt (g) 31 DAP (Meloidogyne incognita [2]; 4 kg (kg/ha) PPI, squash): 26.3 g; top wgt (lbs) 31 DAP (Meloidogyne incognita [2]; 4 kg (kg/ha) PPI, squash): 1.31 lbs; total fruit (lbs) (Meloidogyne incognita [2]; 4 kg (kg/ha) PPI, squash): 1.24 lbs; control of M. incognita (in words) (Meloidogyne incognita [2]; PPI application at 4 kg/ha): significant control
6 | Clc1ccc(-c2noc(-c3cccs3)n2)cc1 [compound 5527] | 1.67 | 1 (1=6-20%) | 0.67 | 91% | 80% | 57% | 90% | 96% | 
7 | Cc1cc(Br)ccc1-c1noc(-c2ccco2)n1 [compound 5825] | 0 (0=0-5%) | 0.33 |  | 96% | 96% | 69% | 98% | 96% | percent control (galling reduction) relative to the control blank treatment (root knot nematode (RKN); 0 day treatment, 0.05 kg/ha, test a): 53^a percent; percent control (galling reduction) relative to the control blank treatment (root knot nematode (RKN); 0 day treatment, 0.1 kg/ha, test a): 50^a percent; percent control (galling reduction) relative to the control blank treatment (root knot nematode (RKN); [7]): 89%; percent control (galling reduction) relative to the control blank treatment (root knot nematode (RKN); 0 day treatment, 0.25 kg/ha, test b): 84%; percent control (galling reduction) relative to the control blank treatment (root knot nematode (RKN); 0 day treatment, 1 kg/ha, test b): — 94^b percent; percent control (galling reduction) relative to the control blank treatment (root knot nematode (RKN); 7 day treatment, 1 kg/ha, test b): — 97^b percent
8 | Fc1cc(Cl)ccc1-c1noc(-c2cccs2)n1 [compound 5860] |  |  |  |  |  |  |  |  | percent control (galling reduction) relative to the control blank treatment (root knot nematode (RKN); [7]): 47^a percent; percent control (galling reduction) relative to the control blank treatment (root knot nematode (RKN); 0 day treatment, 1 kg/ha, test a): 85^a percent; percent control (galling reduction) relative to the control blank treatment (root knot nematode (RKN); 7 day treatment, 1 kg/ha, test a): 86^a percent
9 | Clc1cc(Br)ccc1-c1nsc(-c2ccco2)n1 [compound 5961] |  |  |  |  |  |  |  |  | percent control (galling reduction) relative to the control blank treatment (root knot nematode (RKN); 0 day treatment, 0.05 kg/ha, test c): — — 73^c percent; percent control (galling reduction) relative to the control blank treatment (root knot nematode (RKN); 0 day treatment, 0.1 kg/ha, test c): — — 88^c percent; percent control (galling reduction) relative to the control blank treatment (root knot nematode (RKN); 0 day treatment, 0.25 kg/ha, test c): — — 81^c percent
